Reference: US9675592B2, “Methods and compositions for bacteria infections” (priority 2013, dated 2017)

Assays:
[1] = tested on: test strain 923 pPvra-lux (USA300 MRSA); assay: Primary screen, relative growth in presence of oxacillin; conditions: compound 10 μM with oxacillin 2 μg/mL, absorbance 24 h, <0.50 = dead cells = hit
[2] = tested on: vraSR promoter (Pvra-lux reporter in strain 923); assay: Primary screen, relative luminescence (vraSR expression); conditions: primary screen, compound 10 μM with oxacillin 2 μg/mL; <0.50 = vraSR repressed = hit

SMILES: O=C(Nc1nnc(-c2ccc(Br)cc2)o1)c1sc2ccccc2c1Cl [F2518-484]
- RG avg (relative growth) [1]: 0.02
- RL avg (relative luminescence) [2]: 0.02

SMILES: O=C(Nc1nnc(-c2cccs2)o1)c1ccc(S(=O)(=O)N2CCCc3ccccc32)cc1 [F0559-350]
- RG avg (relative growth) [1]: 0.43
- RL avg (relative luminescence) [2]: 0.11

SMILES: COc1cccc(-c2nnc(NC(=O)c3ccc(Cl)cc3)o2)c1 [F1374-320]
- RG avg (relative growth) [1]: 0.04
- RL avg (relative luminescence) [2]: 0.32

SMILES: O=C(COc1ccc(Cl)cc1)Nc1nnc(-c2ccc3c(c2)CCCC3)o1 [F0608-664]
- RG avg (relative growth) [1]: −0.04
- RL avg (relative luminescence) [2]: −0.01

SMILES: C=CCN(CC=C)S(=O)(=O)c1ccc(C(=O)Nc2nnc(-c3ccccc3OC)o2)cc1 [F0559-129]
- RG avg (relative growth) [1]: −0.08
- RL avg (relative luminescence) [2]: −0.07

SMILES: Cc1ccc(C)c(-c2nnc(NC(=O)c3cccc(Cl)c3)o2)c1 [F2518-295]
- RG avg (relative growth) [1]: 0.01
- RL avg (relative luminescence) [2]: −0.09

SMILES: COc1ccc(-c2nnc(NC(=O)c3ccc(C(C)(C)C)cc3)o2)cc1 [F1374-495]
- RG avg (relative growth) [1]: 0.04
- RL avg (relative luminescence) [2]: 0.37

SMILES: CCC1CCCCN1S(=O)(=O)c1ccc(C(=O)Nc2nnc(Cc3ccc(OC)cc3)o2)cc1 (centres unmarked) [F2368-619]
- RG avg (relative growth) [1]: −0.03
- RL avg (relative luminescence) [2]: 0.01

SMILES: O=C(Nc1nnc(-c2ccc(Cl)cc2)o1)c1ccc2ncsc2c1 [F1374-836]
- RG avg (relative growth) [1]: −0.01
- RL avg (relative luminescence) [2]: 0.31

SMILES: COC(=O)c1ccc(C(=O)Nc2nnc(-c3ccccc3Cl)o2)cc1 [F1374-55]
- RG avg (relative growth) [1]: 0.28
- RL avg (relative luminescence) [2]: 0.47

SMILES: O=C(Nc1nnc(-c2ccccc2Cl)o1)c1cc(Cl)sc1Cl [F1374-58]
- RG avg (relative growth) [1]: 0.03
- RL avg (relative luminescence) [2]: 0.33

SMILES: Cc1ccc(-c2nnc(NC(=O)c3ccc(S(=O)(=O)N4CCCCC4C)cc3)o2)c(C)c1 (centres unmarked) [F2518-228]
- RG avg (relative growth) [1]: 0.00
- RL avg (relative luminescence) [2]: −0.14

SMILES: COc1cccc(-c2nnc(NC(=O)c3ccc(S(=O)(=O)N4CCc5ccccc5C4)cc3)o2)c1 [F0559-171]
- RG avg (relative growth) [1]: −0.06
- RL avg (relative luminescence) [2]: −0.11

SMILES: O=C(Nc1nnc(-c2ccc3c(c2)CCCC3)o1)c1nc2ccccc2s1 [F0608-570]
- RG avg (relative growth) [1]: −0.05
- RL avg (relative luminescence) [2]: −0.07

SMILES: O=C(Nc1nnc(-c2ccc3c(c2)CCCC3)o1)c1cccc(Cl)c1 [F0608-659]
- RG avg (relative growth) [1]: −0.05
- RL avg (relative luminescence) [2]: −0.08

SMILES: O=C(Nc1nc(-c2ccccn2)cs1)c1cc(Cl)ccc1Cl [F0447-277]
- RG avg (relative growth) [1]: −0.06
- RL avg (relative luminescence) [2]: −0.11

SMILES: COc1ccc(-c2nnc(NC(=O)c3ccc(Br)s3)o2)cc1 [F1374-455]
- RG avg (relative growth) [1]: 0.03
- RL avg (relative luminescence) [2]: 0.33

SMILES: COc1cc(-c2nnc(NC(=O)c3ccc(S(=O)(=O)N4CCCC4)cc3)o2)cc(OC)c1OC [F0559-311]
- RG avg (relative growth) [1]: −0.06
- RL avg (relative luminescence) [2]: 0.02

SMILES: CSc1ccccc1-c1nnc(NC(=O)c2cc(Cl)sc2Cl)o1 [F2645-67]
- RG avg (relative growth) [1]: 0.02
- RL avg (relative luminescence) [2]: 0.37

SMILES: Cc1cccc(C(=O)Nc2nnc(-c3ccc(Br)cc3)o2)c1 [F2518-436]
- RG avg (relative growth) [1]: 0.00
- RL avg (relative luminescence) [2]: −0.06

SMILES: O=C(Nc1nnc(-c2cc3ccccc3o2)o1)c1ccc(F)cc1 [F2273-390]
- RG avg (relative growth) [1]: 0.27
- RL avg (relative luminescence) [2]: 0.20

SMILES: Cc1ccc(C)c(-c2nnc(NC(=O)c3ccc(S(=O)(=O)N4CCCc5ccccc54)cc3)o2)c1 [F2518-342]
- RG avg (relative growth) [1]: 0.00
- RL avg (relative luminescence) [2]: −0.02

SMILES: CCN(CC)S(=O)(=O)c1ccc(C(=O)Nc2nnc(-c3ccc4c(c3)CCCC4)o2)cc1 [F0608-543]
- RG avg (relative growth) [1]: −0.02
- RL avg (relative luminescence) [2]: −0.08

SMILES: COc1ccccc1-c1nnc(NC(=O)c2cc(-c3ccccc3)nc3ccccc23)o1 [F1374-254]
- RG avg (relative growth) [1]: 0.06
- RL avg (relative luminescence) [2]: 0.36

SMILES: C=CCN(CC=C)S(=O)(=O)c1ccc(C(=O)Nc2nnc(-c3ccc(OC)cc3)o2)cc1 [F0559-189]
- RG avg (relative growth) [1]: −0.05
- RL avg (relative luminescence) [2]: −0.08

SMILES: O=C(Nc1nnc(-c2ccc3c(c2)CCCC3)o1)c1ccc(Cl)s1 [F0608-662]
- RG avg (relative growth) [1]: −0.07
- RL avg (relative luminescence) [2]: −0.10

SMILES: Cc1ccc(-c2nnc(NC(=O)c3nc4ccccc4s3)o2)c(C)c1 [F2518-183]
- RG avg (relative growth) [1]: 0.00
- RL avg (relative luminescence) [2]: −0.04

SMILES: COc1ccc(-c2nnc(NC(=O)c3ccc(C(=O)c4ccccc4)cc3)o2)cc1 [F1374-443]
- RG avg (relative growth) [1]: 0.05
- RL avg (relative luminescence) [2]: 0.39

SMILES: CC1CCCCN1S(=O)(=O)c1ccc(C(=O)Nc2nnc(-c3ccc4c(c3)OCCO4)o2)cc1 (centres unmarked) [F0608-71]
- RG avg (relative growth) [1]: −0.03
- RL avg (relative luminescence) [2]: 0.01

SMILES: O=C(Nc1nnc(C2COc3ccccc3O2)o1)c1ccc(S(=O)(=O)N2CCCc3ccccc32)cc1 (centres unmarked) [F0608-715]
- RG avg (relative growth) [1]: −0.01
- RL avg (relative luminescence) [2]: −0.05

SMILES: Cc1ccc(-c2nnc(NC(=O)c3ccc(F)cc3)o2)cc1C [F2767-12]
- RG avg (relative growth) [1]: 0.02
- RL avg (relative luminescence) [2]: 0.01

SMILES: O=C(Nc1nnc(-c2ccc3c(c2)CCCC3)o1)c1cccs1 [F0608-554]
- RG avg (relative growth) [1]: −0.04
- RL avg (relative luminescence) [2]: −0.08

SMILES: O=C(Nc1nnc(-c2ccc3c(c2)OCCO3)o1)c1ccc(C(=O)c2ccccc2)cc1 [F0608-19]
- RG avg (relative growth) [1]: −0.02
- RL avg (relative luminescence) [2]: −0.12

SMILES: O=C(Nc1nnc(-c2ccco2)o1)c1ccc(Oc2ccccc2)cc1 [F0608-491]
- RG avg (relative growth) [1]: −0.06
- RL avg (relative luminescence) [2]: −0.11

SMILES: COc1cccc(-c2nnc(NC(=O)C(c3ccccc3)c3ccccc3)o2)c1 [F1374-379]
- RG avg (relative growth) [1]: 0.47
- RL avg (relative luminescence) [2]: 0.34

SMILES: COc1ccc(Cc2nnc(NC(=O)c3ccc(S(=O)(=O)N(C)Cc4ccccc4)cc3)o2)cc1 [F2368-617]
- RG avg (relative growth) [1]: −0.04
- RL avg (relative luminescence) [2]: −0.07

SMILES: O=C(Nc1nnc(C2=COCCO2)o1)c1cc(Cl)cc(Cl)c1 [F0608-258]
- RG avg (relative growth) [1]: −0.05
- RL avg (relative luminescence) [2]: −0.06

SMILES: O=C(Nc1nnc(-c2ccc(Cl)s2)o1)c1ccc2ncsc2c1 [F1374-1151]
- RG avg (relative growth) [1]: −0.02
- RL avg (relative luminescence) [2]: 0.35

SMILES: COc1ccccc1-c1nnc(NC(=O)c2ccc(S(=O)(=O)N(C)c3ccccc3)cc2)o1 [F0559-127]
- RG avg (relative growth) [1]: −0.05
- RL avg (relative luminescence) [2]: −0.11

SMILES: O=C(Nc1nnc(Cc2ccccc2)o1)c1cc(Cl)sc1Cl [F2368-63]
- RG avg (relative growth) [1]: −0.01
- RL avg (relative luminescence) [2]: −0.02

SMILES: O=C(Nc1nnc(-c2ccc(Br)cc2)o1)c1cccc(Br)c1 [F2518-447]
- RG avg (relative growth) [1]: 0.02
- RL avg (relative luminescence) [2]: 0.00

SMILES: O=C(Nc1nnc(-c2cccs2)o1)c1ccc2c(c1)CCCC2 [F1374-1012]
- RG avg (relative growth) [1]: 0.16
- RL avg (relative luminescence) [2]: 0.49

SMILES: Cc1ccc(-c2nnc(NC(=O)c3ccc(Cl)s3)o2)c(C)c1 [F2518-186]
- RG avg (relative growth) [1]: 0.01
- RL avg (relative luminescence) [2]: −0.09

SMILES: O=C(Nc1nnc(-c2ccc(Cl)s2)o1)c1ccc(-c2ccccc2)cc1 [F1374-1060]
- RG avg (relative growth) [1]: 0.17
- RL avg (relative luminescence) [2]: 0.46

SMILES: COc1ccc(-c2nnc(NC(=O)c3cc(Cl)sc3Cl)o2)cc1OC [F2767-204]
- RG avg (relative growth) [1]: −0.02
- RL avg (relative luminescence) [2]: −0.09

SMILES: COc1cccc(-c2nnc(NC(=O)c3cccc(C(F)(F)F)c3)o2)c1 [F1374-352]
- RG avg (relative growth) [1]: 0.03
- RL avg (relative luminescence) [2]: 0.41

SMILES: O=C(Nc1nnc(-c2cccs2)o1)c1cccc(C(F)(F)F)c1 [F1374-982]
- RG avg (relative growth) [1]: 0.13
- RL avg (relative luminescence) [2]: 0.35

SMILES: O=C(Nc1nnc(-c2cc(Cl)ccc2Cl)o1)c1ccccc1 [F2518-2]
- RG avg (relative growth) [1]: −0.02
- RL avg (relative luminescence) [2]: 0.01

SMILES: COc1cc(-c2nnc(NC(=O)c3ccc(S(=O)(=O)N4CCc5ccccc5C4)cc3)o2)cc(OC)c1OC [F0559-321]
- RG avg (relative growth) [1]: −0.03
- RL avg (relative luminescence) [2]: −0.09

SMILES: Cc1ccccc1C(=O)Nc1nnc(-c2ccc3c(c2)CCCC3)o1 [F0608-614]
- RG avg (relative growth) [1]: 0.08
- RL avg (relative luminescence) [2]: −0.05

SMILES: O=C(Nc1nnc(-c2ccc(Br)s2)o1)c1ccc2ncsc2c1 [F5093-111]
- RG avg (relative growth) [1]: −0.02
- RL avg (relative luminescence) [2]: −0.02

SMILES: CSc1ccc(-c2nnc(NC(=O)c3ccc(S(=O)(=O)N(C)Cc4ccccc4)cc3)o2)cc1 [F2645-405]
- RG avg (relative growth) [1]: 0.29
- RL avg (relative luminescence) [2]: 0.57
